Measurements as given in patent US20230181536A1, “ANTICANCER COMBINATION THERAPY WITH N-(1-ACRYLOYL-AZETIDIN-3-YL)-2-((1H-INDAZOL-3-YL)AMINO)METHYL)-1H-IMIDAZOLE-5-CARBOXAMIDE INHIBITOR OF KRAS-G12C” (TAIHO PHARMACEUTICAL CO., LTD., priority 2020, published 2023).

These compounds were tested against T1, KRAS G12C (Homo sapiens, UniProt P01116, G12C) (assay: Inhibitory activity on the KRAS G12C nucleotide (GDP-GTP) exchange reaction). Conditions: Bodipy FL GDP-bound KRAS G12C 25 nM; preincubation at 25° C. for 4 hours; SOS1 100 nM, GppNHp 1 μM, reaction for 30 minutes.
T1 construct: KRAS G12C (amino acid region: 1-169)
Format: biochemical
Experimental: Test Example 2: Evaluation of Inhibitory Activity of Compounds on the KRAS G12C Nucleotide (GDP-GTP) Exchange Reaction
The inhibitory activity of compounds on the exchange reaction of GDP into GppNHp in Bodipy (trademark) FL-bound KRAS G12C was examined by fluorescence measurement using human recombinant KRAS G12C and SOS1 proteins.
For the preparation of KRAS G12C to which Bodipy FL GDP was bound, first, 50 µM KRAS G12C (amino acid region: 1-169) and 1 mM Bodipy FL GDP (Invitrogen, G22360) were incubated for 1 hour in a buffer (20 mM Tris-HCl (pH 7.5), 50 mM NaCl, 1 mM DTT) in ice in the presence of 2.5 mM EDTA. Thereafter, MgCl2 with a final concentration of 10 mM was added, and the mixture was incubated at room temperature for 30 minutes. The protein was allowed to pass through a NAP-5 column to remove free nucleotides and was used for compound evaluation.
For the measurement of the inhibitory activity of compounds on nucleotide exchange reaction, first, the compound of the disclosure was diluted stepwise with dimethyl sulfoxide (DMSO). Subsequently, a solution of the gradually diluted compound of the disclosure in DMSO (the final concentration of DMSO: 5%) and KRAS G12C (25 nM) bound to Bodipy FL GDP were added to a reaction buffer (20 mM Tris-HCl (pH 7.5), 100 mM NaCl, 1 mM MgCl2, 2 mM DTT, 0.1% Tween20), followed by preincubation at 25° C. for 4 hours. Thereafter, Son of Sevenless Homolog 1 (SOS1, amino acid region: 564-1049) and GppNHp (GMPPNP, Jena Bioscience GmbH, NU-401-50) were added such that their final concentration was 100 nM and 1 μM respectively, followed by reaction for 30 minutes. The change in fluorescence intensity of Bodipy FL (excitation wavelength: 485 nm, fluorescence wavelength: 520 nm) immediately after the start of reaction and after 30 minutes from the start of reaction was standardized. The signal value for only DMSO was determined to be 0% inhibition, and the signal value for no addition of GppNHp was determined to be 100% inhibition. The compound concentration at which 50% inhibition is achieved was determined to be the IC50 (nM) and was calculated.

T1 sequence (P01116 1-169 isoform P01116-2 G12C): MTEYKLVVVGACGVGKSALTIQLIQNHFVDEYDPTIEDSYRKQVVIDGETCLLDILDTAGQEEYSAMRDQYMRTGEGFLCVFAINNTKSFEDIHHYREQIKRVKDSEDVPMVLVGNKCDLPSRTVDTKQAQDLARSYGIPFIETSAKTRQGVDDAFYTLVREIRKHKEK

| Structure (SMILES) | IC50 [nM] |
| --- | --- |
| C=CC(=O)N1C[C@@H](NC(=O)c2c(C)nc(CNc3n[nH]c4cc(Cl)c(C(C)(C)C)cc34)n2C)[C@@H]1C (relative stereo) [Example 59, N-(trans-1-acryloyl-2-methylazetidin-3-yl)-2-(((5-(tert-butyl)-6-chloro-1H-indazol-3-yl)amino)methyl)-1,4-dimethyl-1H-imidazole-5-carboxamide] | 85 |
| C=CC(=O)N1CC(NC(=O)c2cnc(CNc3n[nH]c4cc(Cl)c(C(C)(C)C)cc34)n2C)C1 [Example 1, N-(1-acryloylazetidin-3-yl)-2-(((5-(tert-butyl)-6-chloro-1H-indazol-3-yl)amino)methyl)-1-methyl-1H-imidazole-5-carboxamide] | 16 |
| C=CC(=O)N1CC(NC(=O)c2sc(CNc3n[nH]c4cc(Cl)c(C(C)(C)C)cc34)nc2C)C1 [Example 2, N-(1-acryloylazetidin-3-yl)-2-(((5-(tert-butyl)-6-chloro-1H-indazol-3-yl)amino)methyl)-4-methylthiazole-5-carboxamide] | 365 |
| C=CC(=O)N1CC(NC(=O)c2c(C)nc(CNc3n[nH]c4cc(Cl)c(C(C)(C)C)cc34)n2C)C1 [Example 3, N-(1-acryloylazetidin-3-yl)-2-(((5-(tert-butyl)-6-chloro-1H-indazol-3-yl)amino)methyl)-1,4-dimethyl-1H-imidazole-5-carboxamide] | 9 |
| C=CC(=O)N1CC(NC(=O)c2cnc(C(C)Nc3n[nH]c4cc(Cl)c(C(C)(C)C)cc34)n2C)C1 (stereo not drawn) [Example 4, N-(1-acryloylazetidin-3-yl)-2-(1-((5-(tert-butyl)-6-chloro-1H-indazol-3-yl)amino)ethyl)-1-methyl-1H-imidazole-5-carboxamide] | 1560 |
| [2H]C([2H])(Nc1n[nH]c2cc(Cl)c(C(C)(C)C)cc12)c1nc(C)c(C(=O)NC2CN(C(=O)C=C)C2)n1C [Example 5, N-(1-acryloylazetidin-3-yl)-2-(((5-(tert-butyl)-6-chloro-1H-indazol-3-yl)amino)methyl-d2)-1,4-dimethyl-1H-imidazole-5-carboxamide] | 10 |
| C=CC(=O)N1CC(NC(=O)c2c(Cl)c(CNc3n[nH]c4cc(Cl)c(C(C)(C)C)cc34)nn2C)C1 [Example 6, N-(1-acryloylazetidin-3-yl)-3-(((5-(tert-butyl)-6-chloro-1H-indazol-3-yl)amino)methyl)-4-chloro-1-methyl-1H-pyrazole-5-carboxamide] | 791 |
| C=CC(=O)N1CC(NC(=O)c2csc(CNc3n[nH]c4cc(Cl)c(C(C)(C)C)cc34)n2)C1 [Example 7, N-(1-acryloylazetidin-3-yl)-2-(((5-(tert-butyl)-6-chloro-1H-indazol-3-yl)amino)methyl)thiazole-4-carboxamide] | 4260 |
| C=CC(=O)N1CC(NC(=O)c2cnc(CNc3n[nH]c4cc(Cl)c(C(C)(C)C)cc34)s2)C1 [Example 8, N-(1-acryloylazetidin-3-yl)-2-(((5-(tert-butyl)-6-chloro-1H-indazol-3-yl)amino)methyl)thiazole-5-carboxamide] | 783 |
| C=CC(=O)N1CC(NC(=O)c2cc(CNc3n[nH]c4cc(Cl)c(C(C)(C)C)cc34)nn2C)C1 [Example 9, N-(1-acryloylazetidin-3-yl)-3-(((5-(tert-butyl)-6-chloro-1H-indazol-3-yl)amino)methyl)-1-methyl-1H-pyrazole-5-carboxamide] | 3140 |
| C=CC(=O)N1CC(NC(=O)c2c(C)c(CNc3n[nH]c4cc(Cl)c(C(C)(C)C)cc34)nn2C)C1 [Example 10, N-(1-acryloylazetidin-3-yl)-3-(((5-(tert-butyl)-6-chloro-1H-indazol-3-yl)amino)methyl)-1,4-dimethyl-1H-pyrazole-5-carboxamide] | 129 |
| C=CC(=O)N1CC(NC(=O)c2oc(CNc3n[nH]c4cc(Cl)c(C(C)(C)C)cc34)nc2C)C1 [Example 11, N-(1-acryloylazetidin-3-yl)-2-(((5-(tert-butyl)-6-chloro-1H-indazol-3-yl)amino)methyl)-4-methyloxazole-5-carboxamide] | 1060 |
| C=CC(=O)N1CC(NC(=O)c2c(C)nc(CNc3n[nH]c4cc(Cl)c(C(C)(C)C)cc34)n2CC)C1 [Example 12, N-(1-acryloylazetidin-3-yl)-2-(((5-(tert-butyl)-6-chloro-1H-indazol-3-yl)amino)methyl)-1-ethyl-4-methyl-1H-imidazole-5-carboxamide] | 16 |
| C=CC(=O)N1CC(NC(=O)c2c(C)nc(CNc3n[nH]c4cc(Cl)c(C(C)(C)C)cc34)n2C(C)C)C1 [Example 13, N-(1-acryloylazetidin-3-yl)-2-(((5-(tert-butyl)-6-chloro-1H-indazol-3-yl)amino)methyl)-1-isopropyl-4-methyl-1H-imidazole-5-carboxamide] | 15 |
| C=CC(=O)N1CC(NC(=O)c2c(C)nc(CNc3n[nH]c4cc(Cl)c(C(C)(C)C)cc34)n2CCOC)C1 [Example 14, N-(1-acryloylazetidin-3-yl)-2-(((5-(tert-butyl)-6-chloro-1H-indazol-3-yl)amino)methyl)-1-(2-methoxyethyl)-4-methyl-1H-imidazole-5-carboxamide] | 24 |
| C=CC(=O)N1CC(NC(=O)c2c(C)nc(CNc3n[nH]c4cc(Cl)c(C(C)(C)C)cc34)n2Cc2ccccc2)C1 [Example 15, N-(1-acryloylazetidin-3-yl)-1-benzyl-2-(((5-(tert-butyl)-6-chloro-1H-indazol-3-yl)amino)methyl)-4-methyl-JH-imidazole-5-carboxamide] | 84 |
| C=CC(=O)N1CC(NC(=O)c2c(C)nc(CNc3n[nH]c4cc(Cl)c(C(C)(C)C)cc34)n2CCN(C)C)C1 [Example 16, N-(1-acryloylazetidin-3-yl)-2-(((5-(tert-butyl)-6-chloro-1H-indazol-3-yl)amino)methyl)-1-(2-(dimethylamino)ethyl)-4-methyl-JH-imidazole-5-carboxamide] | 25 |
| C=CC(=O)N1CC(NC(=O)c2c(C)nc(CNc3n[nH]c4cc(Cl)c(C(C)(C)C)cc34)n2C2CCCC2)C1 [Example 17, N-(1-acryloylazetidin-3-yl)-2-(((5-(tert-butyl)-6-chloro-1H-indazol-3-yl)amino)methyl)-1-cyclopentyl-4-methyl-JH-imidazole-5-carboxamide] | 17 |
| C=CC(=O)N1CC(NC(=O)c2c(C)nc(CNc3n[nH]c4cc(Cl)c(C(C)(C)C)cc34)n2CCCC)C1 [Example 18, N-(1-acryloylazetidin-3-yl)-1-butyl 2-(((5-(tert-butyl)-6-chloro-JH-indazol-3-yl)amino)methyl)-4-methyl-JH-imidazole-5-carboxamide] | 12 |
| C=CC(=O)N1CC(NC(=O)c2c(C)nc(CNc3n[nH]c4cc(Cl)c(C(C)(C)C)cc34)n2CCC)C1 [Example 19, N-(1-acryloylazetidin-3-yl)-2-(((5-(tert-butyl)-6-chloro-1H-indazol-3-yl)amino)methyl)-4-methyl-1-propyl-1H-imidazole-5-carboxamide] | 9 |
| C=CC(=O)N1CC(NC(=O)c2c(C)nc(CNc3n[nH]c4cc(Cl)c(C(C)(C)C)cc34)n2C(C)CC)C1 (stereo not drawn) [Example 20, N-(1-acryloylazetidin-3-yl)-1-(sec-butyl)-2-(((5-(tert-butyl)-6-chloro-1H-indazol-3-yl)amino)methyl)-4-methyl-1H-imidazole-5-carboxamide] | 31 |
